In patent US6506936B1, “N-substituted arylsulfonylamino hydroxamic acids useful as inhibitors of c-proteinase and for treating or preventing disorders related to unregulated collagen production” (FibroGen, Inc., priority 1999, dated 2003):

These compounds were tested on human foreskin fibroblasts (assay: Cytotoxicity: metabolic activity (WST-1) of quiescent fibroblasts exposed to inhibitor). Details: 25 μM compound, 0.5% DMSO, 48 hours, 60% or below = very sick or dead.
Type: cell-based
Procedure: C-proteinase inhibitors were studied in cytotoxicity assays wherein quiescent cells were exposed to C-proteinase inhibitors for a given time and cell viability measured. By examining cellular metabolic activity, cell viability and cell survival were determined.
C-proteinase inhibitors were tested on human foreskin fibroblasts that had been grown to confluence in 96 well microtiter plates in Dulbecco's Modified Eagle Medium (DMEM) containing 10% fetal calf serum. Shortly before adding the inhibitors, the media was removed and 90 μl per microtiter well of fresh serum-free DMEM was added to the cells. The C-proteinase inhibitors were made up as concentrated stocks containing compound at 250 μM in the presence of 5% DMSO as solvent. A concentrated stock of 10 μl was added to each microtiter well to give a final compound concentration of 25 μM in the presence of 0.5% DMSO. The cells were incubated in the presence of the C-proteinase inhibitor for 48 hours, and then cell viability and survival were measured as a function of metabolic activity. To examine cellular metabolic activity, 10 μl of WST-1 reagent (Boehringer Mannheim) was added to each well of a 96 well microtiter plate containing quiescent cells that were already in media. The plate was incubated at 37° C. for 120 minutes and removed. The absorbance at 450 nm-650 nm was recorded. […] Controls included untreated healthy cells, and cells killed with 0.1% saponin.
Cytotoxicity was evaluated as a function of cellular survival. Cellular survival was determined by measuring the metabolic activity of the quiescent cells after exposure to the C-proteinase inhibitors. To determine the metabolic activity of the cells, the color change of a trazolium dye over time was examined according to Mossmann, […], Immunol. Methods 65:66; Carmichael, 1987, Cancer Res 47:936, incorporated herein by reference. Healthy cells cleaved the dye producing a colored product that can be quantitated. […] Dead cells had no metabolic activity and no effect on the dye was shown.
The amount of dye cleaved by cells that had been incubated with inhibitor, expressed as a percentage relative to untreated cells, is shown in TABLE 2. Cells that register at 60% or below are considered either very sick or dead. Control cells that were intentionally killed give a value of close to 20%.

Row | SMILES | Percent Metabolic Activity of Fibroblasts Exposed To Various C-Proteinase Inhibitors Relative to Untreated Fibroblasts [%]
1 | CS(=O)(=O)c1ccc(S(=O)(=O)N(CCC(=O)NO)CCc2cccs2)cc1 [Compound 1463] | 110.0
2 | CCCCCCCCS(=O)(=O)N(CCC(=O)NO)Cc1ccc2c(c1)OCO2 [Compound 1359] | 101.1
3 | N/C(=N\O)c1cccc(S(=O)(=O)N(CCC(=O)NO)CCc2cccs2)c1 [Compound 1457] | 107.4
4 | N/C(=N\O)c1ccc(S(=O)(=O)N(CCC(=O)NO)CCc2cccs2)cc1 [Compound 1409] | 108.8
5 | O=C(CCN(Cc1ccc2c(c1)OCO2)S(=O)(=O)c1cccc2nsnc12)NO [Compound 1362] | 119.4
6 | CS(=O)(=O)c1ccc(S(=O)(=O)N(CCC(=O)NO)Cc2ccc3c(c2)OCO3)cc1 [Compound 1464] | 111.0
7 | COc1ccc(CCN(CCC(=O)NO)S(=O)(=O)c2cccc(/C(N)=N/O)c2)cc1 [Compound 1456] | 106.8
8 | O=C(CCN(Cc1ccc2c(c1)OCO2)S(=O)(=O)c1ccc(S(=O)(=O)c2ccccc2)s1)NO [Compound 1361] | 103.4
9 | CC(=O)Nc1ccc(S(=O)(=O)N(CCC(=O)NO)Cc2ccc3c(c2)OCO3)cc1 [Compound 1357] | 108.1
